Consider 19 molecules from patent publication US20240197888A1, “SOS1 PROTEIN DEGRADERS, PHARMACEUTICAL COMPOSITIONS THEREOF, AND THEIR THERAPEUTIC APPLICATIONS” (BioTheryX, Inc., priority 2021, published 2024).

Type in all cases: cell-based
The test system of assay [1] is SW480 (G12V) cells. The assay can be described thus: Cell viability assay (CELLTITER-GLO), SW480 cells. The conditions noted are these: Homo sapiens, 72 h, Inhibition of cancerous cells, 3 days incubation, luminescence. How it is done:
(§1) AsPC-1, H358, and SW48 cells were cultured in RPMI 1640 media supplemented with 10% fetal bovine serum, streptomycin, and penicillin. Lovo and SW480 cells were cultured in DMEM media supplemented with 10% fetal bovine serum, streptomycin, and penicillin. The cell lines were plated in their respective medium supplemented with 2.5% fetal bovine serum, streptomycin, and penicillin. All cell lines were plated in white walled 96-well plates at 2,000 cells/well or 384-well plates at 500 cells/well, except Lovo, which were plated at 4,000 or 1,000 cells/well, respectively. The cells were incubated in DMSO (control) or a compound for 3 days at 37° C. under 5% CO2. A CELLTITER-GLO® reagent ([…] was then added to each well. After a 10 min incubation with shaking, luminescence was measured using an ENVISION® multimode plate reader. IC50 values are summarized in Table 1.
A general note: ATP-based viability assays read luminescence as a measure of living cells.

For assay [2], the system named is Lovo (G13D) cells. Nature of the assay: Cell viability assay (CELLTITER-GLO), Lovo cells. As to conditions: Homo sapiens, 72 h, Inhibition of cancerous cells, 3 days incubation, luminescence. Here is the method: as §1
For assay [3], the system named is SW48 (wt) cells. The assay can be described thus: Cell viability assay (CELLTITER-GLO), SW48 cells. The conditions noted are these: Homo sapiens, 72 h, Inhibition of cancerous cells, 3 days incubation, luminescence. Here is the method:
as §1

Assay [4] deals with H358 (G12C) cells. The assay can be described thus: Cell viability assay (CELLTITER-GLO), H358 cells. As to conditions: Homo sapiens, NCI-H358, 72 h, Inhibition of cancerous cells, 3 days incubation, luminescence. How it is done:
as §1

The term IC50 denotes the concentration needed to halve the response being measured. Consider `COc1cc2c(N[C@H](C)c3cccc(Br)c3)nc(C)nc2cc1OCCCCCCCc1ccncc1` [Compound A43, (R)—N-(1-(3-Bromophenyl)ethyl)-6-methoxy-2-methyl-7-((7-(pyridin-4-yl)heptyl)-oxy)quinazolin-4-amine], for which the IC50 is 1.9 µM in assay [1], 2.2 µM in assay [2], 3.6 µM in assay [3] and 5.4 µM in assay [4].

For the molecule `COc1cc2c(N[C@H](C)c3cccc(Br)c3)nc(C)nc2cc1OCCCCCCCN1CCCCC1=O` [Compound A25, (R)-1-(7-((4-((1-(3-Bromophenyl)ethyl)amino)-6-methoxy-2-methylquinazolin-7-yl)oxy)heptyl)piperidin-2-one], the concentration for half-maximal inhibition (IC50) in assay [1] was found to be 0.78 µM; in assay [2] it was 0.5 µM; in assay [3] it was 1.8 µM; in assay [4] it was 1.4 µM.

As to `COc1cc2c(N[C@H](C)c3cccc(Br)c3)nc(C)nc2cc1OCCCCCCCN1CCC(C(F)(F)F)CC1` [Compound A24, (R)—N-(1-(3-Bromophenyl)ethyl)-6-methoxy-2-methyl-7-((7-(4-(trifluoromethyl)-piperidin-1-yl)heptyl)oxy)quinazolin-4-amine], the concentration for half-maximal inhibition (IC50) was 0.71 µM in assay [1], 0.46 µM in assay [2], 0.59 µM in assay [3] and 1.2 µM in assay [4].

With `CNCc1ccccc1-c1csc([C@H](C)Nc2nc(C)nc3cc(OCCOCCOC(=O)CC45CC6CC(CC(C6)C4)C5)c(OC)cc23)c1` [Compound A48, 2-(2-((6-Methoxy-2-methyl-4-(((S)-1-(4-(2-((methylamino)methyl)phenyl)-thiophen-2-yl)ethyl)amino)quinazolin-7-yl)oxy)ethoxy)ethyl 2-((3r,5r,7r)-adamantan-1-yl)acetate], the IC50 in assay [1] is 0.57 µM; in assay [2] it was 0.58 µM; in assay [3], 0.57 µM; in assay [4], 0.94 µM.

As for `CNCc1ccccc1-c1csc([C@H](C)Nc2nc(C)nc3cc(OCCCCCOC(=O)CC45CC6CC(CC(C6)C4)C5)c(OC)cc23)c1` [Compound A46, 5-((6-Methoxy-2-methyl-4-(((S)-1-(4-(2-((methylamino)methyl)phenyl)thiophen-2-yl)ethyl)amino)quinazolin-7-yl)oxy)pentyl 2-((3r,5r,7r)-adamantan-1-yl)acetate], the IC50 was found to be 1.2 µM in assay [1], 1.5 µM in assay [2], 1.1 µM in assay [3] and 1.5 µM in assay [4].

Consider `COc1cc2c(N[C@H](C)c3cccc(Br)c3)nc(C)nc2cc1OCCCCCCCN1CCOCC1` [Compound A75, (R)—N-(1-(3-Bromophenyl)ethyl)-6-methoxy-2-methyl-7-((7-morpholinoheptyl)-oxy)quinazolin-4-amine], for which the IC50 in assay [1] is 0.59 µM; in assay [2], 0.25 µM; in assay [3], 0.66 µM; in assay [4], 0.73 µM.

`COc1cc2c(N[C@H](C)c3cccc(Br)c3)nc(C)nc2cc1OCCCCCCC(=O)N1CCCCC1` [Compound A36, (R)-7-((4-((1-(3-Bromophenyl)ethyl)amino)-6-methoxy-2-methylquinazolin-7-yl)oxy)-1-(piperidin-1-yl)heptan-1-one]: the IC50 in assay [1] turned out to be 0.56 µM; in assay [2], 0.78 µM; in assay [3], 1.7 µM; in assay [4] it was 1.3 µM.

As to `CNCc1ccccc1-c1csc([C@H](C)Nc2nc(C)nc3cc(OCCOCCNC(=O)CC45CC6CC(CC(C6)C4)C5)c(OC)cc23)c1` [Compound A6, 2-((3r,5r,7r)-adamantan-1-yl)-N-(2-(2-((6-methoxy-2-methyl-4-(((S)-1-(4-(2-((methylamino)methyl)phenyl)thiophen-2-yl)ethyl)amino)quinazolin-7-yl)oxy)ethoxy)-ethyl)acetamide], the 50% inhibitory concentration (IC50) was determined as 0.76 µM in assay [1], 0.48 µM in assay [2], 1 µM in assay [3] and 0.97 µM in assay [4].

As to `CNCc1ccccc1-c1csc([C@H](C)Nc2nc(C)nc3cc(OCCCCCCCN4CCCCC4)c(OC)cc23)c1` [Compound A3, (S)-6-methoxy-2-methyl-N-(1-(4-(2-((methylamino)methyl)phenyl)thiophen-2-yl)ethyl)-7-((7-(piperidin-1-yl)heptyl)oxy)quinazolin-4-amine], the IC50 in assay [1] came out at 0.61 µM; in assay [2], 0.34 µM; in assay [3], 0.5 µM; in assay [4], 0.61 µM.

For `COc1cc2c(N[C@H](C)c3cccc(Br)c3)nc(C)nc2cc1OCCCCCCCC(=O)N[C@H]1CCC(=O)NC1=O` [Compound A77, 8-((4-(((R)-1-(3-Bromophenyl)ethyl)amino)-6-methoxy-2-methylquinazolin-7-yl)oxy)-N—((S)-2,6-dioxopiperidin-3-yl)octanamide], the IC50 in assay [1] came to 3.9 µM; in assay [2], 2.9 µM; in assay [3], 5.1 µM; in assay [4] it was 6.7 µM.

`CNCc1ccccc1-c1csc([C@H](C)Nc2nc(C)nc3cc(OCCNC(=O)CC45CC6CC(CC(C6)C4)C5)c(OC)cc23)c1` [Compound A52, 2-((3r,5r,7r)-Adamantan-1-yl)-N-(2-((6-methoxy-2-methyl-4-(((S)-1-(4-(2-((methylamino)methyl)phenyl)thiophen-2-yl)ethyl)amino)quinazolin-7-yl)oxy)ethyl)acetamide]: the half-inhibitory concentration (IC50) in assay [1] was determined as 0.61 µM; in assay [2], 0.43 µM; in assay [3] it was 0.89 µM; in assay [4], 1.2 µM.

As for `CNCc1ccccc1-c1csc([C@@H](C)Nc2nc(C)nc3cc(OCCOCCOC(=O)CC45CC6CC(CC(C6)C4)C5)c(OC)cc23)c1` [Compound A47, 2-(2-((6-Methoxy-2-methyl-4-(((R)-1-(4-(2-((methylamino)methyl)phenyl)-thiophen-2-yl)ethyl)amino)quinazolin-7-yl)oxy)ethoxy)ethyl 2-((3r,5r,7r)-adamantan-1-yl)acetate], the 50% inhibitory concentration (IC50) was 0.58 µM in assay [1], 0.43 µM in assay [2], 0.64 µM in assay [3] and 0.76 µM in assay [4].

In the case of `COc1cc2c(N[C@H](C)c3cccc(Br)c3)nc(C)nc2cc1OCCCCc1ccncc1` [Compound A73, (R)—N-(1-(3-Bromophenyl)ethyl)-6-methoxy-2-methyl-7-(4-(pyridin-4-yl)-butoxy)quinazolin-4-amine], the half-inhibitory concentration (IC50) in assay [1] was 1 µM; in assay [2], 1.4 µM; in assay [3], 4.1 µM; in assay [4] it was 2.6 µM.

With `COc1cc2c(N[C@H](C)c3cccc(Br)c3)nc(C)nc2cc1OCCCCCCCN1C(C)(C)CCCC1(C)C` [Compound A74, (R)—N-(1-(3-Bromophenyl)ethyl)-6-methoxy-2-methyl-7-((7-(2,2,6,6-tetramethyl-piperidin-1-yl)heptyl)oxy)quinazolin-4-amine], the IC50 in assay [1] was found to be 0.42 µM; in assay [2] it was 0.34 µM; in assay [3], 0.56 µM; in assay [4], 0.65 µM.

Regarding `COc1cc2c(N[C@H](C)c3cccc(Br)c3)nc(C)nc2cc1OCCCCCCCN1CCN(C(C)=O)CC1` [Compound A26, (R)-1-(4-(7-((4-((1-(3-Bromophenyl)ethyl)amino)-6-methoxy-2-methyl-quinazolin-7-yl)oxy)heptyl)piperazin-1-yl)ethan-1-one], the IC50 in assay [1] was determined as 0.58 µM; in assay [2], 0.54 µM; in assay [3] it was 0.6 µM; in assay [4] it was 1.2 µM.

As for `CNCc1ccccc1-c1csc([C@@H](C)Nc2nc(C)nc3cc(OCCOCCNC(=O)CC45CC6CC(CC(C6)C4)C5)c(OC)cc23)c1` [Compound A5, 2-((3r,5r,7r)-adamantan-1-yl)-N-(2-(2-((6-methoxy-2-methyl-4-(((R)-1-(4-(2-((methylamino)methyl)phenyl)thiophen-2-yl)ethyl)amino)quinazolin-7-yl)oxy)ethoxy)ethyl)-acetamide], the IC50 in assay [1] amounted to 0.55 µM; in assay [2], 0.45 µM; in assay [3], 0.9 µM; in assay [4] it was 0.91 µM.

Turning to `CNCc1ccccc1-c1csc([C@@H](C)Nc2nc(C)nc3cc(OCCNC(=O)CC45CC6CC(CC(C6)C4)C5)c(OC)cc23)c1` [Compound A51, 2-((3r,5r,7r)-Adamantan-1-yl)-N-(2-((6-methoxy-2-methyl-4-(((R)-1-(4-(2-((methylamino)methyl)phenyl)thiophen-2-yl)ethyl)amino)quinazolin-7-yl)oxy)ethyl)acetamide], the half-inhibitory concentration (IC50) came to 0.62 µM in assay [1], 0.47 µM in assay [2], 0.75 µM in assay [3] and 1.1 µM in assay [4].

With `CNCc1ccccc1-c1csc([C@@H](C)Nc2nc(C)nc3cc(OCCCCCCCN4CCCCC4)c(OC)cc23)c1` [Compound A2, (R)-6-methoxy-2-methyl-N-(1-(4-(2-((methylamino)methyl)phenyl)thiophen-2-yl)ethyl)-7-((7-(piperidin-1-yl)heptyl)oxy)quinazolin-4-amine], the half-maximal inhibitory concentration (IC50) in assay [1] stood at 0.51 µM; in assay [2] it was 0.18 µM; in assay [3] it was 0.33 µM; in assay [4], 0.47 µM.

As for `CNCc1ccccc1-c1csc([C@@H](C)Nc2nc(C)nc3cc(OCCCCCOC(=O)CC45CC6CC(CC(C6)C4)C5)c(OC)cc23)c1` [Compound A45, 5-((6-Methoxy-2-methyl-4-(((R)-1-(4-(2-((methylamino)methyl)phenyl)thiophen-2-yl)ethyl)amino)quinazolin-7-yl)oxy)pentyl 2-((3r,5r,7r)-adamantan-1-yl)acetate], the IC50 stood at 0.57 µM in assay [1], 0.45 µM in assay [2], 1 µM in assay [3] and 0.85 µM in assay [4].
